We go through 44 compounds from US7964624B1, “Inhibitors of serine proteases” (priority 2005, dated 2011).

The target of the assay is T1, full-length hepatitis C viral protein NS3•4A (Hepatitis C virus genotype 1a, UniProt P27958).
T1 construct: hexa-histidine (N); made in house; host or cells: Sf9 insect cells (baculovirus, pVL1392)
In words: biochemical. Details: species or system HCV sub-type strain 1a. Particulars: Enzyme Assay 2 (HCV NS3 Peptide Cleavage Assay) activity, apparent Ki class.
For the compound `CCC[C@H](NC(=O)[C@@H]1C[C@]2(CC(c3cccc(Cl)c3)=NO2)CN1C(=O)[C@@H](NC(=O)CC1CCCCC1)C1(OC)CC1)C(=O)C(=O)NC1CC1` [Compound 211], the Ki was less than 0.1 µM. To `CC(C)(C)[C@H](NC(=O)CC1CCCCCC1)C(=O)N1C[C@@]2(CC(c3cccc(Cl)c3)=NO2)C[C@H]1C(=O)N[C@@H](CC1CC1)C(=O)C(N)=O` [Compound 219] belongs less than 0.1 µM; to `CCC[C@H](NC(=O)[C@@H]1C[C@]2(CC(c3cccc(Cl)c3)=NO2)CN1C(=O)[C@@H](NC(=O)CC1CCCCC1)C(C)(C)C)C(=O)C(=O)N1CC(OC[C@H]2CCCO2)C1` [Compound 238], more than 0.5 µM. To `CCC[C@H](NC(=O)[C@@H]1C[C@]2(CC(c3cc(Cl)cc(OC)c3)=NO2)CN1C(=O)[C@@H](NC(=O)CC1CCCCC1)C(C)(C)C)C(=O)C(=O)NC1CC1` [Compound 250] belongs less than 0.1 µM; to `COc1cc(OC)c(C2=NO[C@]3(C2)C[C@@H](C(=O)N[C@@H](CC2CC2)C(=O)C(N)=O)N(C(=O)[C@@H](NC(=O)OC(C)(C)C)C(C)(C)C)C3)cc1Cl` [Compound 264], less than 0.1 µM. To `CCC[C@H](NC(=O)[C@@H]1C[C@]2(CC(c3cc(Cl)c(OC)cc3OC)=NO2)CN1C(=O)[C@@H](NC(=O)CC1(C)CCOCC1)C(C)(C)C)C(=O)C(=O)NC1CC1` [Compound 286] belongs less than 0.1 µM; to `CCC[C@H](NC(=O)[C@@H]1C[C@]2(CC(c3cc(Cl)c(OC)cc3OC)=NO2)CN1C(=O)[C@@H](NC(=O)CC(C)(C)C)C(C)(C)C)C(=O)C(=O)NC1CC1` [Compound 297], less than 0.1 µM. Turning to `CCC[C@H](NC(=O)[C@@H]1C[C@]2(CC(c3cc(F)cc4c3OCOC4)=NO2)CN1C(=O)[C@@H](NC(=O)CC1CCCCC1)C(C)(C)C)C(=O)C(=O)NC1CC1` [Compound 305], the Ki lay in the range of 0.1 to 0.5 µM. To `CCC[C@H](NC(=O)[C@@H]1C[C@]2(CC(c3cccc(Cl)c3)=NO2)CN1C(=O)[C@@H](NC(=O)CC1CC2CCC1C2)C1(OC)CC1)C(=O)C(=O)NC1CC1` (some centres unmarked) [Compound 346] belongs less than 0.1 µM; to `CCC[C@H](NC(=O)[C@@H]1C[C@]2(CC(c3cc(Cl)c(OC)cc3OC)=NO2)CN1C(=O)[C@@H](NC(=O)CC1(C)CCOCC1)C(C)(C)C)C(=O)C(=O)N1CCC1` [Compound 356], less than 0.1 µM; to `CCC[C@H](NC(=O)[C@@H]1C[C@]2(CC(c3cccc(Cl)c3)=NO2)CN1C(=O)[C@@H](NC(=O)CC1CCCCC1)C(C)(C)C)C(=O)C(=O)N1CC(OC2CCOC2)C1` (some centres unmarked) [Compound 368], 0.1 to 0.5 µM.

As for `CCC[C@H](NC(=O)[C@@H]1C[C@]2(CC(c3cccc(Cl)c3)=NO2)CN1C(=O)[C@@H](NC(=O)OC1CCCC1)C(C)(C)C)C(=O)C(=O)NC1CC1` [Compound 369], the Ki was less than 0.1 µM.

Take `CCC[C@H](NC(=O)[C@@H]1C[C@]2(CC(c3cccc(Cl)c3)=NO2)CN1C(=O)Cc1ccc(OC(F)(F)F)cc1)C(=O)C(=O)NC1CC1` [Compound 380]: the Ki was more than 0.5 µM. To `CCC[C@H](NC(=O)[C@@H]1C[C@]2(CC(c3cc(C)cc(Cl)c3)=NO2)CN1C(=O)[C@@H](NC(=O)CC1CCCCC1)C(C)(C)C)C(=O)C(=O)NC1CC1` [Compound 396] belongs less than 0.1 µM; to `CCC[C@H](NC(=O)[C@@H]1C[C@]2(CC(c3cc(C)c(OCC4CC4)c(C)c3)=NO2)CN1C(=O)[C@@H](NC(=O)CC1CCCCC1)C(C)(C)C)C(=O)C(=O)NC1CC1` [Compound 406], less than 0.1 µM. With `CCC[C@H](NC(=O)[C@@H]1C[C@]2(CC(c3cc(Cl)c(OC)cc3OC)=NO2)CN1C(=O)[C@@H](NC(=O)CC1CC2CCC1C2)C(C)(C)C)C(=O)C(=O)NC1CC1` (some centres unmarked) [Compound 446], the Ki is less than 0.1 µM.

As for `C[C@@H]1CC(CC(=O)N[C@H](C(=O)N2C[C@@]3(CC(c4cccc(Cl)c4)=NO3)C[C@H]2C(=O)N[C@@H](CC2CC2)C(=O)C(N)=O)C(C)(C)C)C[C@@H](C)O1` (some centres unmarked) [Compound 468], the Ki is less than 0.1 µM.

In the case of `CC(C)(C)[C@H](NC(=O)[C@@H]1C[C@H]1c1ccccc1)C(=O)N1C[C@@]2(CC(c3cccc(Cl)c3)=NO2)C[C@H]1C(=O)N[C@@H](CC1CC1)C(=O)C(N)=O` [Compound 485], the Ki is less than 0.1 µM. `CCC[C@H](NC(=O)[C@@H]1C[C@]2(CC(c3cc(C)c(OCC)c(C)c3)=NO2)CN1C(=O)[C@@H](NC(=O)CC1CCCCC1)C(C)(C)C)C(=O)C(=O)NC1CC1` [Compound 513]: the Ki was less than 0.1 µM.

As to `CNC(=O)C(=O)[C@H](CC1CC1)NC(=O)[C@@H]1C[C@]2(CC(c3cccc(Cl)c3)=NO2)CN1C(=O)[C@@H](NC(=O)CC1CCCCC1)C(C)(C)C` [Compound 522], the Ki was less than 0.1 µM. To `COc1cc(OC)c(C2=NO[C@]3(C2)C[C@@H](C(=O)N[C@@H](CC2CC2)C(=O)C(N)=O)N(C(=O)[C@@H](NC(=O)CC2(C)CCOCC2)C(C)(C)C)C3)cc1Cl` [Compound 529] belongs less than 0.1 µM; to `CCC[C@H](NC(=O)[C@@H]1C[C@]2(CC(c3ccc(OCC)c(Cl)c3)=NO2)CN1C(=O)[C@@H](NC(=O)CC1CCCCC1)C(C)(C)C)C(=O)C(=O)NC1CC1` [Compound 556], less than 0.1 µM; to `COc1cc(OC)c(C2=NO[C@]3(C2)C[C@@H](C(=O)N[C@@H](CC2CC2)C(=O)C(N)=O)N(C(=O)[C@@H](NC(=O)CC2CCCCC2)C(C)(C)C)C3)cc1Cl` [Compound 562], less than 0.1 µM. To `CCC[C@H](NC(=O)[C@@H]1C[C@]2(CC(c3cc(Cl)c(OC)cc3OC)=NO2)CN1C(=O)[C@@H](NC(=O)OC(C)(C)C)C(C)(C)C)C(=O)C(=O)N1CCC1` [Compound 581] belongs less than 0.1 µM; to `CCC[C@H](NC(=O)[C@@H]1C[C@]2(CC(c3cccc4cccnc34)=NO2)CN1C(=O)[C@@H](NC(=O)CC1CCCCCC1)C(C)(C)C)C(=O)C(=O)NC1CC1` [Compound 595], less than 0.1 µM; to `CCC[C@H](NC(=O)[C@@H]1C[C@]2(CC(c3cccc4cccnc34)=NO2)CN1C(=O)[C@@H](NC(=O)CC1CCCCCC1)C(C)(C)C)C(=O)C(=O)NC` [Compound 596], 0.1 to 0.5 µM. Then `CCC[C@H](NC(=O)[C@@H]1C[C@]2(CC(c3ccc(N(C)C)c(Cl)c3)=NO2)CN1C(=O)[C@@H](NC(=O)CC1CCCCC1)C(C)(C)C)C(=O)C(=O)NC1CC1` [Compound 597], with 0.1 to 0.5 µM; and `CCC[C@H](NC(=O)[C@@H]1C[C@]2(CC(c3cccc(NC(=O)C(Cl)Cl)c3)=NO2)CN1C(=O)[C@@H](NC(=O)CC1CCCCC1)C(C)(C)C)C(=O)C(=O)NC1CC1` [Compound 598], with 0.1 to 0.5 µM.

Turning to `CCC[C@H](NC(=O)[C@@H]1C[C@@]2(CC(c3cc(Cl)c4c(c3)CCCN4C)=NO2)CN1C(=O)[C@@H](NC(=O)OC(C)(C)C)C(C)(C)C)C(=O)C(=O)NC1CC1` [Compound 600], the Ki was in the range of 0.1 to 0.5 µM. For the compound `CCC[C@H](NC(=O)[C@@H]1C[C@]2(CC(c3cc(Cl)c4c(c3)CCCN4C)=NO2)CN1C(=O)[C@@H](NC(=O)OC(C)(C)C)C(C)(C)C)C(=O)C(=O)NC1CC1` [Compound 601], the Ki is less than 0.1 µM. To `CC(C)(C)[C@H](NC(=O)CC1CCCCCC1)C(=O)N1C[C@@]2(CC(c3cccc4cccnc34)=NO2)C[C@H]1C(=O)N[C@@H](CC1CC1)C(=O)C(N)=O` [Compound 602] belongs less than 0.1 µM; to `CC(C)(C)[C@H](NC(=O)CC1CCCCC1)C(=O)N1C[C@@]2(CC(c3cccc4cccnc34)=NO2)C[C@H]1C(=O)N[C@@H](CC1CC1)C(=O)C(N)=O` [Compound 603], less than 0.1 µM.

In the case of `CCC[C@H](NC(=O)[C@@H]1C[C@]2(CC(c3cc(Cl)c(OC)cc3C)=NO2)CN1C(=O)[C@@H](NC(=O)CC1CCCCC1)C(C)(C)C)C(=O)C(=O)NC` [Compound 604], the Ki is 0.1 to 0.5 µM. To `CCC[C@H](NC(=O)[C@@H]1C[C@]2(CC(c3cc(Cl)c(OC)cc3C)=NO2)CN1C(=O)[C@@H](NC(=O)CC1CCCCCC1)C(C)(C)C)C(=O)C(=O)NC1CC1` [Compound 606] belongs 0.1 to 0.5 µM; to `CCC[C@H](NC(=O)[C@@H]1C[C@]2(CC(c3cc(Cl)c(OC)cc3C)=NO2)CN1C(=O)[C@@H](NC(=O)CC(C)(C)C)C(C)(C)C)C(=O)C(=O)NC` [Compound 607], 0.1 to 0.5 µM. To `CCC[C@H](NC(=O)[C@@H]1C[C@]2(CC(c3cc(Cl)c(OC)cc3C)=NO2)CN1C(=O)[C@@H](NC(=O)CC(C)(C)C)C(C)(C)C)C(=O)C(=O)NC1CC1` [Compound 608] belongs 0.1 to 0.5 µM. To `CCC[C@H](NC(=O)[C@@H]1C[C@]2(CC(c3ccc(F)c(Cl)c3)=NO2)CN1C(=O)[C@@H](NC(=O)CC1CCCCC1)C(C)(C)C)C(=O)C(=O)NC` [Compound 609] belongs less than 0.1 µM.

Regarding `CCC[C@H](NC(=O)[C@@H]1C[C@]2(CC(c3ccc(F)c(Cl)c3)=NO2)CN1C(=O)[C@@H](NC(=O)CC1CCCCCC1)C(C)(C)C)C(=O)C(=O)NC` [Compound 610], the Ki is less than 0.1 µM. Then `CCC[C@H](NC(=O)[C@@H]1C[C@]2(CC(c3ccc(F)c(Cl)c3)=NO2)CN1C(=O)[C@@H](NC(=O)CC1CCCCCC1)C(C)(C)C)C(=O)C(=O)NC1CC1` [Compound 611], with less than 0.1 µM. Then `CCC[C@H](NC(=O)[C@@H]1C[C@]2(CC(c3ccc(F)c(Cl)c3)=NO2)CN1C(=O)[C@@H](NC(=O)CC(C)(C)C)C(C)(C)C)C(=O)C(=O)NC` [Compound 612], with less than 0.1 µM. Regarding `CCC[C@H](NC(=O)[C@@H]1C[C@]2(CC(c3ccc(F)c(Cl)c3)=NO2)CN1C(=O)[C@@H](NC(=O)CC(C)(C)C)C(C)(C)C)C(=O)C(=O)NC1CC1` [Compound 613], the Ki was less than 0.1 µM. Then `CCC[C@H](NC(=O)[C@@H]1C[C@]2(CC(c3cc(C)c(OC)cc3OC)=NO2)CN1C(=O)[C@@H](NC(=O)CC1CCCCC1)C(C)(C)C)C(=O)C(=O)NC1CC1` [Compound 614], with less than 0.1 µM; and `CCC[C@H](NC(=O)[C@@H]1C[C@]2(CC(c3cc(C)c(OC)cc3C)=NO2)CN1C(=O)[C@@H](NC(=O)CC1CCCCC1)C(C)(C)C)C(=O)C(=O)NC1CC1` [Compound 615], with 0.1 to 0.5 µM; and `CNC(=O)C(=O)[C@H](CC1CC1)NC(=O)[C@@H]1C[C@]2(CC(c3cc(Cl)c(OC)cc3OC)=NO2)CN1C(=O)[C@@H](NC(=O)CC1CCCCCC1)C(C)(C)C` [Compound 616], with less than 0.1 µM.
